Results on 11 compounds are retold here after US20110190199A1, “Combination Therapy for Tuberculosis” (priority 2008, published 2011).

Assay [1] deals with M. tuberculosis H37Rv. In words: Example 9: compound of formula I added to first and second line anti-tuberculosis drugs (survival, lung CFU after 4 weeks). Conditions: for Mean lung log10 CFU count (±) S.D. after 4 weeks of treatment with: Regimen alone / Mean lung log10 CFU count (±) S.D. after 4 weeks of treatment with: Regimen + U 25 mg/kg / Mean lung log10 CFU count (±) S.D. after 4 weeks of treatment with: Regimen + U 100 mg/kg: D0 8.36 ± 0.10; for Mean lung log10 CFU count (±) S.D. after 4 weeks of treatment with: Regimen alone: H 10, R 10, Eb 100, M 100 mg, Et 50, A 150 sc, C 20 mg/kg; for Mean lung log10 CFU count (±) S.D. after 4 weeks of treatment with: Regimen + U 25 mg/kg: labelled drug PLUS U 25 mg/kg; for Mean lung log10 CFU count (±) S.D. after 4 weeks of treatment with: Regimen + U 100 mg/kg: labelled drug PLUS U 100 mg/kg, lower limit of detection 3.40; for Time to 50% mortality: no treatment 21 days. It is filed as in vivo, mice.

The subject of assay [2] is Mycobacterium tuberculosis H37Rv. The assay is classed as in vivo, mice. Conditions: 25 mg/kg.
For assay [3] the test system is unchanged. The assay can be described thus: Example 6: in vivo activity of the combination (lung CFU after 4 and 8 weeks). Also on record: species or system mice. Conditions: for Lung log10 CFU counts (±SD) after treatment with the indicated regimen plus the compound of formula (I) 100 mg/kg/day, Day 28 / Lung log10 CFU counts (±SD) after treatment with the indicated regimen plus the compound of formula (I) 100 mg/kg/day, Day 56: labelled regimen PLUS compound of formula (I) 100 mg/kg/day, INH 25, RIF 10, PZA 150, MXF 100 mg/kg; for Lung log10 CFU counts (±SD) after treatment with the indicated regimen plus the compound of formula (I) 100 mg/kg/day, Day 28 / Lung log10 CFU counts (±SD) after treatment with the indicated regimen plus the compound of formula (I) 100 mg/kg/day, Day 56 / Lung log10 CFU counts (±SD) after treatment with the indicated regimen, Day 56 / Lung log10 CFU counts (±SD) after treatment with the indicated regimen, Day 28: Day 0 7.37 ± 0.12; for reduction in lung CFU counts from baseline over the first 28 days: monotherapy, compound of formula (I) 100, INH 25, RIF 10 mg/kg; for Lung log10 CFU counts (±SD) after treatment with the indicated regimen, Day 56 / Lung log10 CFU counts (±SD) after treatment with the indicated regimen, Day 28: regimen as labelled, INH 25, RIF 10, PZA 150, MXF 100, compound of formula (I) 100 mg/kg; for Lung log10 CFU counts (±SD) after treatment with the indicated regimen, Day 28: 100 mg/kg.

Assay [4] has the same test system. In words: Example 8B: eight week dose ranging study (second phase after 4 weeks RHZU25). Also noted: Lung CFU / CFU-U only: unit not given here. It is filed as in vivo, mice. Particulars: 8 weeks: 4 weeks RHZU25 (4.19 ± 0.26) then 4 weeks of the labelled treatment; R 10, H 25 mg/kg; untreated 5.49 ± 0.23. The protocol: Eighty of the mice from Group 4 (in Example 8A) that had been receiving 25 mg/kg of the compound of formula I (U) along with rifampin(R), isoniazid(H), and pyrazinamide(Z) were evaluated in the second phase of the study. They were assigned to one of the groups described below in Table 6 and the study was continued for an additional 4 weeks (i.e. 8 week results).
As described above, 5 animals served as the control and no further drugs were given. Five were given the combination of rifampin(R) and isoniazid (H), five given isoniazid (H) or rifampin(R) alone. […] Six of these groups were also dosed with rifampin (R). The rifampin and isoniazid was dosed in the same manner and in the same amount as in Example 8A.
At the conclusion of the eight (8) week experiment, all of the animals were sacrificed and CFU lung counts were obtained.

Assay [5] shares this test system. The assay can be described thus: Example 8C: additional dose ranging study (4 and 8 weeks). Conditions: lung; 4 weeks RHZU100 then 4 weeks of the labelled control regimen without U; untreated 4.91 ± 0.17. It is filed as in vivo, mice. The protocol:
The protocol described above in Example 8A and 8B was carried out on an alternative occasion. The only substantive changes were the number of animals per group and the initial incubation period.
Testing continued for an additional 4 weeks with 60 of the mice from Test Group 2 immediately above. The mice either received U alone, at varying doses, or the combination of U and R. The following results were obtained.

“And” between values parts separate entries of the source, which are not always exact repeats. Equal values may be shown once. Marks after values point to notes of the source that are not given here.

On to `NCC[C@H](O)C(=O)N[C@@H]1C[C@H](N)[C@@H](O[C@H]2O[C@H](CN)[C@@H](O)[C@H](O)[C@H]2O)[C@H](O)[C@H]1O[C@H]1O[C@H](CO)[C@@H](O)[C@H](N)[C@H]1O` [A, amikacin], for which, in assay [1], the “Mean lung log10 CFU count (±) S.D. after 4 weeks of treatment with: Regimen alone” value (“Mean lung log10 CFU count … Regimen alone” for short) turned out to be 7.24 ± 0.14 log10 CFU, the “Mean lung log10 CFU count (±) S.D. after 4 weeks of treatment with: Regimen + U 25 mg/kg” value (from here on “Mean lung log10 CFU count … Regimen + U 25 mg/kg”) stood at 6.78 ± 0.16 log10 CFU and the “Mean lung log10 CFU count (±) S.D. after 4 weeks of treatment with: Regimen + U 100 mg/kg” value was 5.18 ± 0.17 log10 CFU.

Consider `CC(C)/N=c1\cc2n(-c3ccc(Cl)cc3)c3ccccc3nc-2cc1Nc1ccc(Cl)cc1` [C, clofazimine], for which, in assay [1], the “Mean lung log10 CFU count … Regimen alone” value is 5.92 ± 0.24 log10 CFU, the “Mean lung log10 CFU count … Regimen + U 25 mg/kg” value worked out at 6.25 ± 0.20 log10 CFU and the “Mean lung log10 CFU count (±) S.D. after 4 weeks of treatment with: Regimen + U 100 mg/kg” value turned out to be 4.91 ± 0.14 log10 CFU.

Take `N[C@@H]1CON=C1O` [Cs, cycloserine]: in assay [1], the “Mean lung log10 CFU count … Regimen + U 25 mg/kg” value stood at 7.19 ± 0.21 log10 CFU, the “Mean lung log10 CFU count (±) S.D. after 4 weeks of treatment with: Regimen + U 100 mg/kg” value is 5.66 ± 0.11 log10 CFU and the “Time to 50% mortality” value is given as 22 days.

For `CC[C@@H](CO)NCCN[C@@H](CC)CO` [Eb, ethambutol], in assay [1], the “Mean lung log10 CFU count … Regimen alone” value was 7.41 ± 0.57 log10 CFU, the “Mean lung log10 CFU count … Regimen + U 25 mg/kg” value worked out at 6.86 ± 0.16 log10 CFU, the “Mean lung log10 CFU count (±) S.D. after 4 weeks of treatment with: Regimen + U 100 mg/kg” value amounted to 5.50 ± 0.13 log10 CFU and the “Time to 50% mortality” value was determined as 30 days.

Consider `CCc1cc(C(N)=S)ccn1` [Et, ethionamide], for which, in assay [1], the “Mean lung log10 CFU count … Regimen alone” value was 7.19 ± 0.04 log10 CFU, the “Mean lung log10 CFU count … Regimen + U 25 mg/kg” value came to 7.18 ± 0.18 log10 CFU and the “Mean lung log10 CFU count (±) S.D. after 4 weeks of treatment with: Regimen + U 100 mg/kg” value stood at 5.46 ± 0.15 log10 CFU.

In the case of `NNC(=O)c1ccncc1` [INH, isoniazid], the “log kill (reduction in mean lung CFU count compared to the baseline value)” value in assay [2] (28 days) was determined as 1.87 log10. The mean spleen weight in assay [2] (after 28 days of treatment, pre-treatment 105±11 mg, untreated 237±16 mg) was 100 ± 1 mg. Also, in assay [1], the “Mean lung log10 CFU count … Regimen alone” value was 7.01 ± 0.14 log10 CFU, the “Mean lung log10 CFU count … Regimen + U 25 mg/kg” value is on record as 6.22 ± 0.06 log10 CFU and the “Mean lung log10 CFU count (±) S.D. after 4 weeks of treatment with: Regimen + U 100 mg/kg” value turned out to be 5.79 ± 0.33 log10 CFU. Also, in assay [3], the “Lung log10 CFU counts (±SD) after treatment with the indicated regimen plus the compound of formula (I) 100 mg/kg/day, Day 28” value stood at 4.33 ± 0.29 log10 CFU; the “Lung log10 CFU counts (±SD) after treatment with the indicated regimen plus the compound of formula (I) 100 mg/kg/day, Day 56” value is on record as 2.87 ± 0.23 log10 CFU; the “reduction in lung CFU counts from baseline over the first 28 days” value was found to be 1.58 log10; the “Lung log10 CFU counts (±SD) after treatment with the indicated regimen, Day 56” value was determined as 4.53 ± 0.24 log10 CFU. The “Lung log10 CFU counts (±SD) after treatment with the indicated regimen, Day 28” value in assay [3] was 5.79 log10 CFU and 5.79 ± 0.14 log10 CFU. The “Lung CFU” value in assay [4] worked out at 4.46 ± 0.37.

Turning to `COc1c(N2C[C@@H]3CCCN[C@@H]3C2)c(F)cc2c(=O)c(C(=O)O)cn(C3CC3)c12` [M, moxifloxacin], in assay [1], the “Mean lung log10 CFU count … Regimen alone” value turned out to be 6.49 ± 0.12 log10 CFU, the “Mean lung log10 CFU count … Regimen + U 25 mg/kg” value was determined as 7.08 ± 0.10 log10 CFU and the “Mean lung log10 CFU count (±) S.D. after 4 weeks of treatment with: Regimen + U 100 mg/kg” value was 5.33 ± 0.30 log10 CFU.

On to `Nc1ccc(C(=O)O)c(O)c1` [Ps, para-aminosalicyclic acid], for which, in assay [1], the “Mean lung log10 CFU count … Regimen + U 25 mg/kg” value was found to be 6.87 ± 0.21 log10 CFU, the “Mean lung log10 CFU count (±) S.D. after 4 weeks of treatment with: Regimen + U 100 mg/kg” value stood at 5.39 ± 0.32 log10 CFU and the “Time to 50% mortality” value stood at 31 days.

On to `CO[C@H]1/C=C/O[C@@]2(C)Oc3c(C)c(O)c4c(O)c(c(/C=N/N5CCN(C)CC5)c(O)c4c3C2=O)NC(=O)/C(C)=C\C=C\[C@H](C)[C@H](O)[C@@H](C)[C@@H](O)[C@@H](C)[C@H](OC(C)=O)[C@@H]1C` [RIF, rifampin], for which, in assay [5], the “CFU Count 8 weeks” value is given as 4.16 ± 0.65. Also, in assay [1], the “Mean lung log10 CFU count … Regimen alone” value came to 6.23 ± 0.11 log10 CFU, the “Mean lung log10 CFU count … Regimen + U 25 mg/kg” value is on record as 5.91 ± 0.21 log10 CFU and the “Mean lung log10 CFU count (±) S.D. after 4 weeks of treatment with: Regimen + U 100 mg/kg” value is 5.02 ± 0.10 log10 CFU. For the same compound, in assay [3], the “Lung log10 CFU counts (±SD) after treatment with the indicated regimen plus the compound of formula (I) 100 mg/kg/day, Day 28” value amounted to 3.73 ± 0.19 log10 CFU; the “Lung log10 CFU counts (±SD) after treatment with the indicated regimen plus the compound of formula (I) 100 mg/kg/day, Day 56” value was determined as 1.29 ± 0.22 log10 CFU; the “reduction in lung CFU counts from baseline over the first 28 days” value worked out at 1.63 log10; the “Lung log10 CFU counts (±SD) after treatment with the indicated regimen, Day 56” value was determined as 4.65 ± 0.24 log10 CFU. The “Lung log10 CFU counts (±SD) after treatment with the indicated regimen, Day 28” value in assay [3] was 5.74 log10 CFU and 5.74 ± 0.17 log10 CFU. Further, the “Lung CFU” value in assay [4] worked out at 4.18 ± 0.55.

`NC(=O)c1cnccn1` [Z, pyrazinamide]: in assay [1], the “Mean lung log10 CFU count … Regimen + U 25 mg/kg” value worked out at 4.73 ± 0.38 log10 CFU, the “Mean lung log10 CFU count (±) S.D. after 4 weeks of treatment with: Regimen + U 100 mg/kg” value is recorded as “≦3.59*** log10 CFU” and the “Time to 50% mortality” value came out at 21 days.

capreomycin: in assay [1], the “Mean lung log10 CFU count … Regimen + U 25 mg/kg” value came out at 6.81 ± 0.13 log10 CFU, the “Mean lung log10 CFU count (±) S.D. after 4 weeks of treatment with: Regimen + U 100 mg/kg” value stood at 5.35 ± 0.17 log10 CFU and the “Time to 50% mortality” value came out at 22 days.
